Where two headings read alike, the source gives them in different places.

Series [1] in a line: Quantum yield measurement (Quantaurus-QY spectrometer). In kind it is physicochemical.
Method: All reported quantum yield values were measured in under identical conditions using a Quantaurus-QY spectrometer (C11374, Hamamatsu). Measurements were carried out using dilute samples (A<0.1) and self-absorption corrections were performed using the instrument software. Reported values are averages (n=3).
Series [2] in a line: Fluorescence lifetime measurement. Conditions: for τ: Table 2, 10 mM HEPES pH 7.3 per table footnote.
Method: For fluorescence lifetime measurements, a pulse picker (Model 350-160, ConOptics) was placed in the laser beam to reduce the pulse frequency from 80 MHz to 20 MHz. Samples (2 μM dye diluted in 50 mM HEPES, pH 7.2, H2O, or CH3OH) were excited at 830 nm laser wavelength and 6 mW laser power. The emitted light was collected by the fast-timing APD and fed to the single-photon counting board (TimeHarp200; PicoQuant). Timing pulses were obtained from a PIN diode (DET01CFC; ThorLabs) monitoring the 20 MHz pulse train. The temporal impulse response of the system was determined by second harmonic generation of laser pulses using a thin nonlinear crystal in place of a dye sample. The lifetime decay data was fit to a single exponential decay function using a custom MATLAB program.
A short description of series [3]: Absorption and fluorescence spectroscopy of dyes. In kind it is physicochemical. The following applies: for ε / λem / λmax: 10 mM HEPES pH 7.3; for ε (extinction coefficient): aqueous buffer. The protocol:
Phosphate buffered saline (PBS) was at pH 7.4 unless otherwise noted.
Spectroscopy was performed using 1-cm path length, 3.5-mL quartz cuvettes from Starna Cells or 1-cm path length, 1.0-mL quartz microcuvettes from Hellma. All measurements were taken at ambient temperature (22±2° C.) in 10 mM HEPES, pH 7.3 buffer unless otherwise noted. Absorption spectra were recorded on a Cary Model 100 spectrometer (Varian); reported values for extinction coefficients (ε) are averages (n=3). Fluorescence spectra were recorded on a Cary Eclipse fluorometer (Varian). Normalized spectra are shown for clarity.

Another series has as its system HaloTag. The experiment in a line: Labeling kinetics and brightness of HaloTag ligand conjugates in vitro. In kind it is biochemical. The following applies: compared with TMR and Cy3 HaloTag ligands. From the text:
(§1) The labeling kinetics of TMR and JF549 HaloTag ligands were compared with a novel Cy3 HaloTag ligand while measuring the brightness and photon yield of the resulting conjugates.

Series [4] relates to HaloTag-histone 2B (H2B) fusion. The experiment in a line: Live-cell confocal labeling of HaloTag-H2B. Format: cell-based. Conditions: live cells expressing HaloTag-H2B. The protocol: as §1
(§2) HeLa cells (ATCC) and U2OS cells (ATCC) were cultured in Dulbecco's modified eagle medium (DMEM; Life Technologies) supplemented with 10% v/v fetal bovine serum (FBS; Life Technologies), 1 mM GlutaMax (Life Technologies), and 1 mM sodium pyruvate (Sigma) and maintained at 37° C. in a humidified 5% v/v CO2 environment. These cell lines undergo regular mycoplasma testing by the Janelia Cell Culture Facility. Cells were transfected with HaloTag-H2B, HaloTag-tubulin, SnapTag-TetR, or SnapTag-H2B using an Amaxa Nucleofector (Lonza). […]
(§3) Three separate systems were used to acquire microscopic images. […] Other live-cell single super-resolution imaging experiments were recorded on a custom-built three-camera RAMM frame (ASI) microscope using an 1.4 NA PLAPON 60×OSC objective (Olympus), and a 300 mm focal length tube lens (LAO-300.0, Melles Griot), resulting in 100× overall magnification. […] Fluorescence was detected with a back-illuminated EMCCD camera (Andor Technology, Ixon Ultra DU-897U-CSO-EXF, 17 MHz EM amplifier), which was controlled through Micro-Manager (1.4.17).

The subject of a further series is HaloTag-H2B. Kind of series: No wash wide-field imaging of live HeLa cells expressing HaloTag-H2B. In kind it is cell-based. Conditions: ligand 100 nM. The protocol: Next, “no wash” imaging experiments were performed using cells expressing the HaloTag-H2B fusion.
as §2, with “(Lonza). Before the imaging experiments, transfected cells were transferred onto a No. 1 coverslip (Warner Instruments) that was cleaned by Piranha solution (3:1 v/v mixture of concentrated H2SO4 and 30% v/v hydrogen peroxide).” for “(Lonza).”
as §3

In another series the test system is HaloTag protein. Conditions: ligand 5 μM, 10 mM HEPES pH 7.3 with 0.1 mg·mL^−1 CHAPS.
In another series the test system is SnapTag-H2B. The experiment in a line: Nuclear labeling of live HeLa cells expressing SnapTag-H2B. Format: cell-based. From the text:
In this Example, an azetidinyl-coumarin label was used for cellular imaging. The performance of a commercial SnapTag ligand (i.e., Snap Cell 430) was compared to a novel azetidinyl derivative (Example 52), which was synthesized from a 7-azetidinyl-coumarin-3-carboxylic acid. Under identical transient transfection, labeling, and imaging conditions, H2B-SnapTag-expressing cells were stained with the red fluorescent nuclear stain DRAQ5 and either Snap Cell 430 or the azetidinyl ligand. Using the DRAQ5 staining as a spatial reference (FIGS. 26 and 27) the intensity of individual nuclei labeled by either SnapTag ligand was measured.
HeLa cells (ATCC) and U2OS cells (ATCC) were cultured in Dulbecco's modified eagle medium (DMEM; Life Technologies) supplemented with 10% v/v fetal bovine serum (FBS; Life Technologies), 1 mM GlutaMax (Life Technologies), and 1 mM sodium pyruvate (Sigma) and maintained at 37° C. in a humidified 5% v/v CO2 environment. These cell lines undergo regular mycoplasma testing by the Janelia Cell Culture Facility. […]
Three separate systems were used to acquire microscopic images. […] Other live-cell single super-resolution imaging experiments were recorded on a custom-built three-camera RAMM frame (ASI) microscope using an 1.4 NA PLAPON 60×OSC objective (Olympus), and a 300 mm focal length tube lens (LAO-300.0, Melles Griot), resulting in 100× overall magnification. […]

Method for HaloTag protein: To measure fluorescence of HaloTag ligands upon reaction with HaloTag protein, absorbance measurements were performed in 1 mL quartz cuvettes. HaloTag protein was used as a 100 μM solution in 75 mM NaCl, 50 mM TRIS. HCl, pH 7.4 with 50% v/v glycerol (TBS-glycerol). HaloTag ligands of JF646 and SiTMR (5 μM) were dissolved in 10 mM HEPES, pH 7.3 containing 0.1 mg·mL^−1 CHAPS. An aliquot of HaloTag protein (1.5 equiv) or an equivalent volume of TBS-glycerol blank was added and the resulting mixture was incubated until consistent absorbance signal was observed (˜30 min). […] Absorbance scans are averages (n=2).

`Cl.N=c1ccc2c(-c3ccccc3C(=O)O)c3ccc(N)cc3oc-2c1` [rhodamine 110, reference compound]: the ϕ in series [1] (Table 2, 10 mM HEPES pH 7.3) stood at 0.88. Also, the “ϕ (quantum yield)” value in series [1] (aqueous buffer) worked out at 0.88. For the same compound, in series [2], the “τ (fluorescence lifetime)” value was 3.3 ns and the τ came to 3.26 ns. In series [3] (Table 2), the ε is 76,000 M^−1 cm^−1, the λem is 520 nm and the λmax is given as 497 nm. In series [3], the “ε (extinction coefficient)” value amounted to 76000 M⁻¹ cm⁻¹.

For the compound `CN(C)c1ccc2c(-c3ccccc3C(=O)[O-])c3ccc(N(C)C)cc3[o+]c2c1` [TMR, tetramethylrhodamine, reference compound], the “ϕ (quantum yield)” value in series [1] (aqueous buffer) is on record as 0.41. The compound also showed a ϕ in series [1] (pH 7.3) of 0.41. Besides, in series [2], the “τ (fluorescence lifetime)” value was 2.2 ns and the τ is on record as 2.21 ns. In addition, in series [3] (Table 2), the ε is 78,000 M^−1 cm^−1, the λem was determined as 572 nm and the λmax was found to be 548 nm. The “ε (extinction coefficient)” value in series [3] was found to be 78000 M⁻¹ cm⁻¹.

Turning to `O=C1OC2(c3ccc(N4CCCCC4)cc3Oc3cc(N4CCCCC4)ccc32)c2ccccc21` [piperidine derivative, reference compound], the “ϕ (quantum yield)” value in series [1] is 0.10. The ϕ in series [1] (pH 7.3) is 0.10. In series [2], the “τ (fluorescence lifetime)” value is reported as 0.6 ns and the τ came to 0.59 ns. In series [3] (Table 2), the ε is listed as 80,000 M^−1 cm^−1, the λem was 586 nm and the λmax was 560 nm.

`O=C(NCCOCCOCCCCCCCl)c1ccc(C(=O)[O-])c(-c2c3ccc(=[N+]4CCC4)cc-3oc3cc(N4CCC4)ccc23)c1` [Example 21, 4-((2-(2-((6-Chlorohexyl)oxy)ethoxy)ethyl)carbamoyl)-2-(3,6-di(azetidin-1-yl)xanthylium-9-yl)benzoate]: in the series with HaloTag, the labeling kinetics result is recorded as “comparable labeling kinetics to the TMR ligand”. For the same compound, in series [4], the “live-cell labeling / cell permeability” value was “efficiently crossed the membrane of live cells and selectively labeled the HaloTag protein”.

On to `C[Si]1(C)C2=CC(=[N+]3CCC3)C=CC2=C(c2cc(C(=O)NCCOCCOCCCCCCCl)ccc2C(=O)[O-])c2ccc(N3CCC3)cc21` [Example 35, 4-((2-(2-((6-Chlorohexyl)oxy)ethoxy)ethyl)carbamoyl)-2-(3,7-di(azetidin-1-yl)-5,5-dimethyldibenzo[b,e]silin-10-ylium-10(5H)-yl)benzoate], for which the “nonspecific staining / background” value in the series with HaloTag-H2B was “lower nonspecific staining”. In addition, in the series on HaloTag protein, the “increase in absorbance upon reaction with excess HaloTag protein” value is recorded as 21 fold.

In series [1] (Table 1, 10 mM HEPES pH 7.3), `O=C([O-])c1ccccc1-c1c2ccc(=[N+]3CCC3)cc-2oc2cc(N3CCC3)ccc12` [Example 7, 2-(3,6-Di(azetidin-1-yl)xanthylium-9-yl)benzoate] had a ϕ of 0.88. In series [1] (Table 2, 10 mM HEPES pH 7.3), this compound registered a ϕ of 0.88. Besides, in series [1] (aqueous buffer), the “ϕ (quantum yield)” value was found to be 0.88. Moreover, the “brighter than the pyrrolidine derivative” value in series [1] (one-photon excitation) is listed as 60%. For the same compound, in series [2], the “τ (fluorescence lifetime)” value worked out at 3.8 ns and the τ is listed as 3.84 ns. In series [3] (Table 1), the ε is 101,000 M^−1 cm^−1, the λem stood at 571 nm and the λmax is reported as 549 nm. Moreover, in series [3] (Table 2), the ε is 101,000 M^−1 cm^−1, the λem is given as 571 nm and the λmax amounted to 549 nm. In addition, the “higher extinction coefficient than the other dyes” value in series [3] (rhodamines of Table 2) was ~30%.

As to `Nc1nc(OCc2ccc(CNC(=O)c3cc4ccc(N5CCC5)cc4oc3=O)cc2)c2nc[nH]c2n1` [Example 52, N-(4-(((2-Amino-9H-purin-6-yl)oxy)methyl)benzyl)-7-(azetidin-1-yl)-2-oxo-2H-chromene-3-carboxamide], in the series with SnapTag-H2B (DRAQ5 reference), the nuclear fluorescence intensity result is listed as “brighter nuclear labeling”. Also, the “median nuclear intensity relative to cells labeled with the commercial compound” value in the series on SnapTag-H2B (n=50) is “five-fold higher”.
